US8232297B2, “Sulphonylpyrroles as inhibitors of HDACs novel sulphonylpyrroles” (4SC AG, priority 2005, dated 2012)
Each block holds one molecule with its values, some of them ahead of it.

What was measured:
A549 cell line = test: Combination experiment with Trail; assay type: cell-based; details: example at about its IC50 with Trail, 4 h pretreatment, 72 h total
Protocol: A549 non-small cell lung cancer, MDA-MB468 breast cancer and […] colorectal cancer cell lines were pretreated with the examples for 4 h before adding the chemotherapeutic agents or Trail and further incubation for 72 h total. The IC50 values of these combinations were determined from concentration-effect curves and compared to IC50 values of cell treated with the anti-cancer agent only.

[1] = system: RKO proliferating colon carcinoma cells; test: Cell-cycle dependent cytotoxicity, RKO exop21 system, proliferating; assay type: cell-based; details: 72 h, given only as range over the listed compounds
Protocol: (§1) For determination of cell-cycle dependent cytotoxicity, the RKO exop21 cell system was applied (Schmidt et al. Oncogene 19: 2423-2429, 2000). Briefly, RKO cells with/without p21^waf1 expression (2×10^4 cells/well induced, 6×10^3 cells/well not induced) were treated with the examples for 72 h and metabolic activity quantified as described before. The expression of p21^waf1 was induced by treatment with Pronasterone A, causing a complete proliferation arrest of RKO cells in the G1 and G2 phases of the cell division cycle.

[2] = system: RKO arrested (p21waf1 expressed) colon carcinoma cells; test: Cell-cycle dependent cytotoxicity, RKO exop21 system, arrested; assay type: cell-based; details: 72 h, p21waf1 induced, given only as range over the listed compounds
Protocol: as §1

[3] = system: HeLa cervical carcinoma cells; test: Cellular cytotoxicity assay (Alamar Blue), HeLa; assay type: cell-based; details: Homo sapiens, 72 h, printed only as range over the group of listed compounds
Protocol: The anti-proliferative activity of the histone deacetylase inhibitory compounds as described herein, was evaluated using the following cell lines: HeLa and HeLa-KB (cervical carcinoma), H460 (non small cell lung cancer), A549 (non-small cell lung cancer), MCF7 (breast carcinoma), MCF10A (normal, non tumorigenic breast epithelial), MDA-MB468 (breast carcinoma), MDA-MB435 (breast carcinoma), MDA-MB231 (breast carcinoma), SKBR-3 (breast carcinoma), SKOV-3 (ovarial carcinoma), A-2780 (ovarial carcinoma), RKO (colon carcinoma), HCT-15 (colon carcinoma), HCT-116 (colon carcinoma), PC3 (prostate carcinoma), BPH1 (benign prostate hyperplasia), AsPC1 (pancreatic carcinoma), Cal27 (tongue carcinoma), A-431 (vulva carcinoma), Hec1A (endometrial carcinoma), Saos-2 (osteosarcoma), U87MG (glioblastoma), WM266-4 (melanoma), K562 (chronic myeloid carcinoma), EOL1 (acute hypereosinophilic myeloid leukemia), CCRF-CEM and CCRF-CEM VCR1000 (acute lymphoblastic leukemia sensitive and resistant towards Vincristine). For quantification of cellular proliferation/living cells the Alamar Blue (Resazurin) cell viability assay was applied (O'Brien et al. Eur J Biochem 267, 5421-5426, 2000). […] After 4 hours incubation at 37° C. the fluorescence was measured at an extinction of 544 nm and an emission of 590 nm. […] Viabilities were expressed as % values. […]

melting point: 227 to 228.6 °C
Compound: NCc1ccc(S(=O)(=O)n2ccc(/C=C/C(=O)NO)c2)cc1 [Compound 17, (E)-3-[1-(4-Aminomethyl-benzenesulfonyl)-1H-pyrrol-3-yl]-N-hydroxy-acrylamide]

melting point: 168 to 170 °C
Compound: O=C(/C=C/c1ccn(S(=O)(=O)c2ccc(CN3CCOCC3)cc2)c1)NO [Compound 27, (E)-N-Hydroxy-3-[1-(4-morpholin-4-ylmethyl-benzenesulfonyl)-1H-pyrrol-3-yl]-acrylamide]

melting point: 203.8 to 211.9 °C
Compound: O=C(/C=C/c1ccn(S(=O)(=O)c2ccc(-c3cn[nH]c3)cc2)c1)NO [Compound 19, (E)-N-Hydroxy-3-{1-[4-(1H-pyrazol-4-yl)-benzenesulfonyl]-1H-pyrrol-3-yl}-acrylamide]

Compound: CN(CCc1cc2ccccc2[nH]1)Cc1ccc(S(=O)(=O)n2ccc(/C=C/C(=O)NO)c2)cc1 [Compound 9, (E)-N-Hydroxy-3-(1-[4-(([2-(1H-indol-2-yl)-ethyl]-methyl-amino)-methyl)-benzenesulfonyl]-1H-pyrrol-3-yl)-acrylamide]
Effect of combination with Trail (A549 cell line): synergism is highly likely | IC50 [1]: 150 to 5100 nM | IC50 [2]: 0.45 to 15 µM

melting point: 114 to 159.4 °C
Compound: O=C(/C=C/c1ccn(S(=O)(=O)c2cccc(-c3ccccc3)c2)c1)NO [Compound 23, (E)-3-[1-(Biphenyl-3-sulfonyl)-1H-pyrrol-3-yl]-N-hydroxy-acrylamide]

melting point: 219.3 to 221.4 °C
Compound: O=C(/C=C/c1ccn(S(=O)(=O)c2ccc(-c3ccncc3)cc2)c1)NO [Compound 18, (E)-N-Hydroxy-3-[1-(4-pyridin-4-yl-benzenesulfonyl)-1H-pyrrol-3-yl]-acrylamide]

melting point: 160.7 to 166.6 °C
Compound: O=C(/C=C/c1ccn(S(=O)(=O)c2ccc(-n3cccn3)cc2)c1)NO [Compound 25, (E)-N-Hydroxy-3-[1-(4-pyrazol-1-yl-benzenesulfonyl)-1H-pyrrol-3-yl]-acrylamide]

Compound: Cc1ccc(S(=O)(=O)n2ccc(C=CC(=O)NO)c2)cc1 [Compound 1, (E)-N-Hydroxy-3-[1-(toluene-4-sulfonyl)-1-H-pyrrol-3-yl]-acrylamide]
IC50 [3]: 0.8 to 21.6 µM

Compound: O=C(/C=C/c1ccn(S(=O)(=O)c2ccc(-c3ccccn3)s2)c1)NO [Compound 24, (E)-N-Hydroxy-3-[1-(5-pyridin-2-yl-thiophene-2-sulfonyl)-1H-pyrrol-3-yl]-acrylamide]
Effect of combination with Trail (A549 cell line): synergism is highly likely | IC50 [1]: 150 to 5100 nM | IC50 [2]: 0.45 to 15 µM

Compound: O=C(/C=C/c1ccn(S(=O)(=O)c2ccc(-c3ccccc3)cc2)c1)NO [Compound 3, (E)-3-[1-(Biphenyl-4-sulfonyl)-1H-pyrrol-3-yl]-N-hydroxy-acrylamide]
Effect of combination with Trail (A549 cell line): synergism is highly likely | IC50 [1]: 150 to 5100 nM | IC50 [2]: 0.45 to 15 µM

Compound: CN(C)Cc1ccc(S(=O)(=O)n2ccc(/C=C/C(=O)NO)c2)cc1 [Compound 10, (E)-3-[1-(4-Dimethylaminomethyl-benzenesulfonyl)-1H-pyrrol-3-yl]-N-hydroxy-acrylamide]
Effect of combination with Trail (A549 cell line): synergism is highly likely | IC50 [1]: 150 to 5100 nM | IC50 [2]: 0.45 to 15 µM

melting point: 171.3 to 174.7 °C
Compound: Nc1ccccc1NC(=O)/C=C/c1ccn(S(=O)(=O)c2ccc(-c3ccccn3)s2)c1 [Compound 26, (E)-N-(2-Amino-phenyl)-3-[1-(5-pyridin-2-yl-thiophene-2-sulfonyl)-1H-pyrrol-3-yl]-acrylamide]

melting point: 244.2 to 246.5 °C
Compound: Nc1ccccc1NC(=O)/C=C/c1ccn(S(=O)(=O)c2ccc(-c3ccncc3)cc2)c1 [Compound 20, (E)-N-(2-Amino-phenyl)-3-[1-(4-pyridin-4-yl-benzenesulfonyl)-1H-pyrrol-3-yl]-acrylamide]

melting point: 232.3 to 240.9 °C
Compound: Nc1ccccc1NC(=O)/C=C/c1ccn(S(=O)(=O)c2ccc(-c3cn[nH]c3)cc2)c1 [Compound 22, (E)-N-(2-Amino-phenyl)-3-{1-[4-(1H-pyrazol-4-yl)-benzenesulfonyl]-1H-pyrrol-3-yl}-acrylamide]

melting point: 199.7 to 202.3 °C
Compound: Nc1ccccc1NC(=O)/C=C/c1ccn(S(=O)(=O)c2ccc(-c3cccnc3)cc2)c1 [Compound 21, (E)-N-(2-Amino-phenyl)-3-[1-(4-pyridin-3-yl-benzenesulfonyl)-1H-pyrrol-3-yl]-acrylamide]
